For series [1], the system named is NFIB-induced astrocytes. Nature of the series: Calcium transient assay (Fluo-4 calcium imaging). The series is classed as cell-based, human. Here is the method:
To confirm whether the cells acquire the ability to change intracellular calcium concentration, gene set enrichment analysis (GSEA) was employed to validate the expression pattern of genes related to this specific function. This analysis involved comparing the ranked gene signature of day 0 cells versus day 14 cells, with genes related to calcium-mediated signaling (GO:0019722). […] Calcium imaging was conducted on cells on days 7 and 14 using Fluo-4, a calcium indicator, and the intracellular calcium transients between two time points were compared. For calcium imaging, the differentiated astrocytes were prepared on 12 mm coverslips. After replacing the cell culture medium with Hank's Balanced Salt Solution (HBSS, without calcium or magnesium) (Thermo Fisher Scientific), differentiated astrocytes were incubated with 5 μM Fluo-4 AM (Thermo Fisher Scientific) at 37° C. for 30 minutes and then washed twice with the HBSS solution before calcium imaging. Thereafter, intracellular calcium levels were analyzed using the Fluo-4 AM fluorescence dye detection method, employing a confocal microscope (Fluoview FV1000, Olympus). For this purpose, intensity images of 535 nm wavelength were captured at 488 nm excitation wavelength at a rate of one frame per 2 seconds. Intracellular calcium levels were expressed as a fluorescence ratio (F/FO), calculated as changes in the fluorescence intensity (F) after treatments with 30 μM ATP or 100 μM glutamate, compared to the initial fluorescence intensity (FO) in the resting state.

Series [2] deals with NFIB-induced astrocytes. Nature of the series: Glutamate uptake analysis. Format: cell-based, human. The note with it: 100 µM of glutamate; after 3 hours; day 7 of differentiation; n=6. The source says: Uptake of excitatory neurotransmitters such as glutamate is another critical function of the astrocytes in the nervous system. This is because excessive glutamate concentration results in excitotoxic damage to the nervous tissue, potentially causing neurodegeneration. As there was a gradual upregulation of the neurotransmitter recycling protein, GLUL, in due course of gene expression (FIG. 5C, indicated by a red box with an asterisk), the ability of the NFIB-induced astrocytes to take up glutamate was assessed throughout differentiation to determine whether the ability improves. The astrocytes were exposed to 100 µM of glutamate, and the concentration of glutamate remaining in the medium was measured after 3 hours on day 7 and day 14. […] This increased uptake correlates well with the gradual increment of various genes related to neurotransmitter uptake (GO: 0001504), including SCL1A3 (a gene encoding excitatory amino acid transporter 1, also known as GLAST) and ARL6IP5 (a gene encoding glutamate transporter EEAC1-interacting protein).

For the next series, the system named is hPSC-NPCs. An excerpt:
FIG. 8A illustrates clustering and scaled expression patterns for differentially expressed genes (DEGs) during the differentiation process using NFIB. […] FIG. 8E and FIG. 8F quantify the percentage of cells positive for each marker on day 14 of differentiation. […] Data is presented as the mean #s.e.m. (n=3) (* p<0.05, ** p<0.01, *** p<0.001).

Bounds are passed on as bounds.

The results in this text go back to patent publication US20240218327A1, “METHOD FOR QUICKLY AND EFFICIENTLY DIFFERENTIATING FUNCTIONAL GLIAL CELLS” (priority 2020, published 2024).

Turning to glutamate, the “duration of asynchronous calcium oscillations” value in the series with NFIB-induced astrocytes [1] (100 μM glutamate, day 7 of differentiation) was “less than 100 seconds”. Also, the “average amplitude of calcium response” value in the series on NFIB-induced astrocytes [1] (100 μM glutamate, day 7 of differentiation, n=19) amounted to 4.92±0.32 F/FO. Besides, the “cells with amplitudes greater than 10” value in the series on NFIB-induced astrocytes [1] (100 μM glutamate, day 14 of differentiation) is given as 32.4%. Besides, the “amplitude of intracellular calcium peaks” value in the series with NFIB-induced astrocytes [1] (100 μM glutamate, day 14 of differentiation, n=26) worked out at 9.63±1.07 F/FO. This molecule had a glutamate uptake in the series with NFIB-induced astrocytes [2] of 12.34±1.17%.

For `N#CC(=C(/N)Sc1ccccc1N)/C(C#N)=C(\N)Sc1ccccc1N` [U0126], in the series with hPSC-NPCs (20 μM), the cell death entry is recorded as “did not induce significant cell death” and the cell proliferation result was “tended to slightly decrease cell proliferation”. Further, the “GFAP-positive cells (astrocytes) in total cells” value in the series with hPSC-NPCs (20 μM, Treatment Condition 3: two days from day 12 to day 14 of differentiation) was 26.88%. Also, the “number of SOX1-positive cells” value in the series on hPSC-NPCs (20 μM, among treatment groups, day 14) was “not significantly different among the groups”. In the series on hPSC-NPCs (20 μM, compared with vehicle-treated group, correlated with exposure time), the “morphology of GFAP-positive cells” value is recorded as “small cell body with fewer short processes”. In the series on hPSC-NPCs (20 μM, prolonged treatment (Treatment Condition 1 or 2), day 14), the “number of GFAP-positive cells” value is “significantly reduced the number of GFAP-positive cells”. The “astrocyte differentiation (fluorescence images for GFAP and SOX1)” value in the series with hPSC-NPCs (pharmacological inhibition of the MAPK signaling pathway, FIG. 8D) is “robust suppression of astrocyte differentiation”.

Consider `Nc1ncnc2c1ncn2[C@@H]1O[C@H](COP(=O)(O)OP(=O)(O)OP(=O)(O)O)[C@@H](O)[C@H]1O` [ATP], for which the “cells with amplitude of calcium transients (F/FO) less than 3, among total cells” value in the series on NFIB-induced astrocytes [1] (30 μM ATP, day 7 of differentiation, n=70) was found to be 84.3%. Moreover, the “amplitude of calcium transients, fluorescence ratio” value in the series on NFIB-induced astrocytes [1] (30 μM ATP, day 14 of differentiation, all the cells tested, n=80) is not below 3 F/FO. In addition, the “duration of elevated intracellular calcium level” value in the series with NFIB-induced astrocytes [1] (30 μM ATP, regardless of the differentiation period (day 7 and day 14)) was not below 50 s.
